Patent publication US6737383B1, “Herbicidal oxadiazolidines” (priority 1999, dated 2004)

Columns and labels:
[1] = test system: crabgrass; experiment: Test B pre/postemergence crabgrass; assay type: in vivo, Digitaria sanguinalis
Outline: (§1)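 Test chemicals in a non-phytotoxic solvent mixture with surfactant were sprayed preemergence onto planted seeds and postemergence onto plants 2 to 18 cm tall (1- to 4-leaf stage). After twelve to sixteen days in a greenhouse, injury was visually rated against untreated controls from 0 (no effect) to 10 (complete control).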

[2] = test system: sugar beet; experiment: Test B pre/postemergence sugar beet; assay type: in vivo, Beta vulgaris
Outline: as §1

[3] = test system: blackgrass; experiment: Test B pre/postemergence blackgrass; assay type: in vivo, Alopecurus myosuroides
Outline: as §1

[4] = test system: rice; experiment: Test B flood test rice; assay type: in vivo, Oryza sativa
Outline: (§2)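 Plants were grown to the 2-leaf stage before treatment with test chemical, then held in a greenhouse for twelve to sixteen days. Injury was visually rated against untreated controls on a 0–10 scale, where 0 is no effect and 10 is complete control.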

[5] = test system: corn; experiment: Test B pre/postemergence corn; assay type: in vivo, Zea mays
Outline: as §1

[6] = test system: surinam grass; experiment: Test B pre/postemergence surinam grass; assay type: in vivo, Brachiaria decumbens
Outline: as §1

[7] = test system: cocklebur; experiment: Test B pre/postemergence cocklebur; assay type: in vivo, Xanthium strumarium
Outline: as §1

[8] = test system: bamyardgrass; experiment: Test B flood test barnyardgrass; assay type: in vivo, Echinochloa crus-galli
Outline: as §2

[9] = test system: wheat; experiment: Test B pre/postemergence wheat; assay type: in vivo, Triticum aestivum
Outline: as §1

[10] = test system: soybean; experiment: Test B pre/postemergence soybean; assay type: in vivo, Glycine max
Outline: as §1

[11] = test system: velvetleaf; experiment: Test B pre/postemergence velvetleaf; assay type: in vivo, Abutilon theophrasti
Outline: as §1

[12] = test system: wild oat; experiment: Test B pre/postemergence wild oat; assay type: in vivo, Avena fatua
Outline: as §1

[13] = test system: bedstraw; experiment: Test B pre/postemergence bedstraw; assay type: in vivo, Galium aparine
Outline: as §1

[14] = test system: smallflower flatsedge; experiment: Test B flood test smallflower flatsedge; assay type: in vivo, Cyperus difformis
Outline: as §2

[15] = test system: purple nutsedge; experiment: Test B pre/postemergence purple nutsedge; assay type: in vivo, Cyperus rotundus
Outline: as §1

[16] = test system: duck salad; experiment: Test B flood test duck salad; assay type: in vivo, Heteranthera limosa
Outline: as §2

[17] = Postemergence, Rate 125 g/ha, scale of 0 to 10 where 0 is no effect and 10 is complete control
[18] = Postemergence, Rate 1000 g/ha, scale 0 to 10 (0 no effect, 10 complete control)
[19] = Preemergence, Rate 62 g/ha, scale 0 to 10 (0 no effect, 10 complete control)
[20] = Preemergence, Rate 125 g/ha, 0 is no effect, 10 is complete control
[21] = Preemergence, Rate 250 g/ha, scale 0 to 10, 0 is no effect, 10 is complete control
[22] = Preemergence, Rate 500 g/ha, scale 0 to 10 (0 no effect, 10 complete control)
[23] = Rate 62 g/ha, Postemergence, scale of 0 to 10 where 0 is no effect and 10 is complete control
[24] = Rate 250 g/ha, Postemergence, scale 0 to 10, 0 is no effect, 10 is complete control
[25] = Rate 500 g/ha, Postemergence, scale 0 to 10
[26] = Rate 1000 g/ha, Preemergence, scale 0 to 10 (0 no effect, 10 complete control)
[27] = Postemergence (flood test species), Rate 125 g/ha, scale of 0 to 10 where 0 is no effect and 10 is complete control
[28] = Rate 62 g/ha, Postemergence section, flood test species, scale of 0 to 10 where 0 is no effect and 10 is complete control
[29] = Rate 250 g/ha, Postemergence (flood test), scale 0 to 10, 0 is no effect, 10 is complete control
[30] = Rate 500 g/ha, listed under Postemergence (flood test species), scale 0 to 10
[31] = Postemergence, Rate 62 g/ha, scale 0 to 10, 0 is no effect, 10 is complete control

C=CCn1c(=O)on(C(=O)N(c2ccc(F)cc2F)C2CC2)c1=O [Compound 127]
Crabgrass plant response rating [1, 17]: 0 | Crabgrass plant response rating [1, 18]: 0 | Crabgrass plant response rating [1, 19]: 0 | Crabgrass plant response rating (0 to 10 scale) [1, 20]: 0 | Crabgrass plant response rating [1, 21]: 0 | Crabgrass plant response rating [1, 22]: 0 | Crabgrass plant response rating [1, 23]: 0 | Plant response rating, Crabgrass [1, 24]: 0 | Crabgrass plant response rating [1, 25]: 0 | Plant response rating, Crabgrass [1, 26]: 7 | Sugarbeets plant response rating [2, 17]: 0 | Sugarbeets plant response rating [2, 18]: 0 | Sugarbeets plant response rating [2, 19]: 0 | Sugarbeets plant response rating (0 to 10 scale) [2, 20]: 0 | Sugarbeets plant response rating [2, 21]: 0 | Sugarbeets plant response rating [2, 22]: 0 | Sugarbeets plant response rating [2, 23]: 0 | Plant response rating, Sugarbeets [2, 24]: 0 | Sugarbeets plant response rating [2, 25]: 0 | Plant response rating, Sugarbeets [2, 26]: 0 | Blackgrass plant response rating [3, 17]: 0 | Blackgrass plant response rating [3, 18]: 0 | Blackgrass plant response rating [3, 19]: 0 | Blackgrass plant response rating (0 to 10 scale) [3, 20]: 0 | Blackgrass plant response rating [3, 21]: 0 | Blackgrass plant response rating [3, 22]: 0 | Blackgrass plant response rating [3, 23]: 0 | Plant response rating, Blackgrass [3, 24]: 0 | Blackgrass plant response rating [3, 25]: 0 | Plant response rating, Blackgrass [3, 26]: 0 | Rice plant response rating [4, 27]: 0 | Rice plant response rating [4, 28]: 0 | Plant response rating, Rice [4, 29]: 0 | Rice plant response rating [4, 30]: 0 | Corn plant response rating [5, 17]: 0 | Corn plant response rating [5, 18]: 0 | Corn plant response rating [5, 19]: 0 | Corn plant response rating (0 to 10 scale) [5, 20]: 0 | Corn plant response rating [5, 21]: 0 | Corn plant response rating [5, 22]: 0 | Corn plant response rating [5, 23]: 0 | Plant response rating, Corn [5, 24]: 0 | Corn plant response rating [5, 25]: 0 | Plant response rating, Corn [5, 26]: 0 | B. signalgrass plant response rating [6, 31]: 0 | B. signalgrass plant response rating [6, 17]: 0 | B. signalgrass plant response rating [6, 18]: 0 | B. signalgrass plant response rating [6, 19]: 0 | B. signalgrass plant response rating (0 to 10 scale) [6, 20]: 0 | B. signalgrass plant response rating [6, 21]: 0 | B. signalgrass plant response rating [6, 22]: 0 | Plant response rating, B. signalgrass [6, 24]: 0 | B. signalgrass plant response rating ([6]; Rate 500 g/ha, Postemergence, scale of 0 to 10 where 0 is no effect and 10 is complete control): 0 | Plant response rating, B. signalgrass [6, 26]: 0 | Cocklebur plant response rating [7, 17]: 0 | Cocklebur plant response rating [7, 18]: 0 | Cocklebur plant response rating [7, 19]: 0 | Cocklebur plant response rating (0 to 10 scale) [7, 20]: 0 | Cocklebur plant response rating [7, 21]: 0 | Cocklebur plant response rating [7, 22]: 0 | Cocklebur plant response rating [7, 23]: 0 | Plant response rating, Cocklebur [7, 24]: 0 | Cocklebur plant response rating [7, 25]: 0 | Barnyardgrass plant response rating [8, 27]: 0 | Barnyardgrass plant response rating [8, 31]: 0 | Plant response rating, Barnyardgrass [8, 29]: 0 | Barnyardgrass plant response rating ([8]; Rate 500 g/ha, listed under Postemergence (flood test species), scale 0 to 10, 0 no effect, 10 complete control): 0 | Wheat plant response rating [9, 17]: 0 | Wheat plant response rating [9, 18]: 0 | Wheat plant response rating [9, 19]: 0 | Wheat plant response rating (0 to 10 scale) [9, 20]: 0 | Wheat plant response rating [9, 21]: 0 | Wheat plant response rating [9, 22]: 0 | Wheat plant response rating [9, 23]: 0 | Plant response rating, Wheat [9, 24]: 0 | Wheat plant response rating [9, 25]: 0 | Plant response rating, Wheat [9, 26]: 2 | Soybean plant response rating [10, 17]: 0 | Soybean plant response rating [10, 18]: 0 | Soybean plant response rating [10, 19]: 0 | Soybean plant response rating (0 to 10 scale) [10, 20]: 0 | Soybean plant response rating [10, 21]: 0 | Soybean plant response rating [10, 22]: 0 | Soybean plant response rating [10, 23]: 0 | Plant response rating, Soybean [10, 24]: 0 | Soybean plant response rating [10, 25]: 0 | Plant response rating, Soybean [10, 26]: 0 | Velvetleaf plant response rating [11, 17]: 0 | Velvetleaf plant response rating [11, 18]: 0 | Velvetleaf plant response rating [11, 19]: 0 | Velvetleaf plant response rating (0 to 10 scale) [11, 20]: 0 | Velvetleaf plant response rating [11, 21]: 0 | Velvetleaf plant response rating [11, 22]: 0 | Velvetleaf plant response rating [11, 23]: 0 | Plant response rating, Velvetleaf [11, 24]: 0 | Velvetleaf plant response rating [11, 25]: 0 | Plant response rating, Velvetleaf [11, 26]: 0 | Wild oats plant response rating [12, 17]: 0 | Wild oats plant response rating [12, 18]: 0 | Wild oats plant response rating [12, 19]: 0 | Wild oats plant response rating (0 to 10 scale) [12, 20]: 0 | Wild oats plant response rating [12, 21]: 0 | Wild oats plant response rating [12, 22]: 0 | Wild oats plant response rating [12, 23]: 0 | Plant response rating, Wild oats [12, 24]: 0 | Wild oats plant response rating [12, 25]: 0 | Plant response rating, Wild oats [12, 26]: 8 | Bedstraw plant response rating [13, 31]: 0 | Bedstraw plant response rating [13, 17]: 0 | Bedstraw plant response rating [13, 18]: 0 | Bedstraw plant response rating [13, 19]: 0 | Bedstraw plant response rating (0 to 10 scale) [13, 20]: 0 | Bedstraw plant response rating [13, 21]: 0 | Bedstraw plant response rating [13, 22]: 0 | Plant response rating, Bedstraw [13, 24]: 0 | Bedstraw plant response rating ([13]; Rate 500 g/ha, Postemergence, scale 0 to 10, 0 no effect, 10 complete control): 0 | Plant response rating, Bedstraw [13, 26]: 0 | S. Flatsedge plant response rating [14, 27]: 0 | S. Flatsedge plant response rating [14, 28]: 0 | Plant response rating, S. Flatsedge [14, 29]: 0 | S. Flatsedge plant response rating [14, 30]: 0 | Nutsedge plant response rating [15, 17]: 0 | Nutsedge plant response rating [15, 18]: 0 | Nutsedge plant response rating [15, 19]: 0 | Nutsedge plant response rating (0 to 10 scale) [15, 20]: 0 | Nutsedge plant response rating [15, 21]: 0 | Nutsedge plant response rating [15, 22]: 0 | Nutsedge plant response rating [15, 23]: 0 | Plant response rating, Nutsedge [15, 24]: 0 | Nutsedge plant response rating [15, 25]: 0 | Ducksalad plant response rating [16, 27]: 0 | Ducksalad plant response rating [16, 28]: 0 | Plant response rating, Ducksalad [16, 29]: 0 | Ducksalad plant response rating [16, 30]: 0
